Data set [1] can be described thus: Measurement of singlet oxygen. It counts as physicochemical. As to conditions: excitation wavelength 690 nm, 20 mW; singlet oxygen detected at 1,270 nm. The procedure: The measurement conditions are as follows.
Excitation was carried out with a dye laser using an excitation wavelength of 690 nm, an average output of 20 mW, a repetition frequency of 30 Hz, a pulse width of about […], and DCM.
For detection, light was dispersed by a spectroscope (focal distance: 250 mm, grating: 600 L/mm) using a gated near-infrared image intensifier (NIR-PII) cooled at −80° C., followed by measurement for 200 microseconds from 30 microseconds after excitation.
In FIG. 10, the red line indicates the generation of singlet oxygen (1,270 nm) derived from ICG-8, and the blue line indicates singlet oxygen scavenging by β-carotene (concentration: 4 μM).
(§1) The measurement conditions were as follows.
In FIG. 12, the red line indicates the generation of singlet oxygen (1,270 nm) derived from ICG-11, and the blue line indicates singlet oxygen scavenging by β-carotene (concentration: 6 μM).

A short description of data set [2]: Fluorescence spectrum of liposome dispersions. As to conditions: liposome dispersion; excitation wavelength 736 nm. It counts as physicochemical. On the procedure: (1) Fluorescence Spectrum
Dispersion of Liposome Including ICG (ICG
A chloroform/methanol (9:1, v/v) solution containing 10.0 mM of egg yolk-derived phosphatidylcholine and 3.2×10^−2 mM of ICG (Diagnogreen injection, Daiichi Sankyo) was prepared; 3 mL thereof was subjected to the distillation off of the solvent under reduced pressure; and 3 mL of a physiological saline was added to the formed thin membrane, which was then treated using a filter having a pore diameter of 0.22 μm to provide liposomes.
(§2) Dispersion of Liposome Having ICG-8 in Lipid Bilayer Membrane (LP-ICG-8)
A chloroform/methanol (9:1, v/v) solution containing 10.0 mM of egg yolk-derived phosphatidylcholine and 3.2×10^−2 mM of ICG-8 was prepared; 3 mL thereof was subjected to the distillation off of the solvent under reduced pressure; and 3 mL of a physiological saline was added to the formed thin membrane, which was then treated using a filter having a pore diameter of 0.22 μm to provide liposomes.
When the above liposome dispersions were measured for fluorescence spectra (Jasco FP-6600), fluorescence spectra as shown in FIG. 2 were obtained at an excitation wavelength of 736 nm. The maximum fluorescence wavelength for ICG was 852 nm, and the maximum fluorescence wavelength for ICG-8 was 854 nm.

The subject of data set [3] is cancer (glioma) under the skin using the brain tumor cells 9 L. The experiment in a line: Near-infrared camera image after intravenous administration (tumor accumulation). It counts as in vivo, rat. As to conditions: 500 μL through the cervical vein; 5 minutes after administration; 9 L tumor-bearing rats. On the procedure: (2) Near-Infrared Camera Image after Intravenous Administration
ICG Aqueous Solution (ICG)
ICG was dissolved to 3.2 mM in pure water and diluted by 100-fold with a physiological saline.
as §2
A chloroform/methanol (9:1, v/v) solution containing egg yolk-derived phosphatidylcholine (10.0 mM), cholesterol (1.0 mM), polyethylene glycol-modified phosphatidylethanolamine (PEG-PE) (5.0×10^−1 mM), and ICG-8 (3.2×10^−2 mM) was prepared; 5 mL thereof was evaporated under reduced pressure; 5 mL of a physiological saline was added to the formed thin membrane, which was then treated using a filter having a pore diameter of 0.22 μm; and the resultant was further treated using a filter having a pore diameter of 0.05 μm to provide liposomes.
F344/Jc1 34-36 weeks 9 L rats were used for the test. […] After cutting the hair over the tumor location, 500 μL of the ICG aqueous solution or LP-ICG-8 was administered through the cervical vein. Fluorescent observation (Hyper Eye Medical System from Mizuho Corporation, excitation wavelength: 760 to 780 nm, fluorescence wavelength: >780 nm) was carried out 5 minutes after administration (FIG. 3). The distance between each rat and the camera head was 50 cm.

The nature of data set [4]: Loading amount in liposome (gel filtration). It counts as physicochemical. Particulars: liposomes formed at ICG:DOPC of 1:40 or 1:20. On the procedure:
The amount of ICG-11 loadable in the liposome was examined by changing the mixing ratio between ICG-11 and dioleoylphosphatidylcholine (DOPC) as the main component of the lipid bilayer membrane. For comparison, the amount of loadable ICG was examined.
In chloroform/methanol (9:1, v/v) solution were dissolved DOPC (10 mM), cholesterol (5 mM), polyethylene glycol-modified phosphatidylethanolamine (PEG-PE, 0.5 mM), and ICG-11 (0 to 5 mM) or ICG (0 to 0.5 mM); a portion of the resultant solution was dried under reduced pressure; and a physiological saline was added to the formed thin membrane, which was then treated using a filter having a pore diameter of 100 nm to provide a liposome dispersion.
The amount of incorporation of ICG-11 into the lipid bilayer membrane when it formed a liposome was measured using the following conditions.
Liposomes into which ICG-11 or ICG was incorporated and ICG-11 or ICG released into a liposome dispersion without being incorporated into the lipid bilayer membrane were separated and determined using a gel filtration column (PD-10 from GE) (FIG. 14).
(In general: Size exclusion chromatography separates by hydrodynamic size, large species first.)

A short description of data set [5]: Fluorescence spectral characteristic of ICG-11 in polar and non-polar solvent. It counts as physicochemical. As to conditions: 1 μM; for fluorescence emission: in chloroform as non-polar solvent. On the procedure:
(1) Fluorescence Spectral Characteristic of ICG-11
The physical properties of ICG-11 were examined in aqueous solutions different in polarity in comparison with ICG.
(a) Comparison in Methanol as Polar Solvent
(b) Comparison in Chloroform as Non-Polar Solvent
In FIG. 11, the black and red lines indicate the results for ICG-11 (concentration: 1 μM) and ICG (concentration: 1 μM), respectively.

A short description of data set [6]: Heat generating capacity of ICG-11. Particulars: excitation 808 nm, 0.5 W/m^2; ICG-11 0 to 4 μM. It counts as physicochemical. The procedure:
(3) Heat Generating Capacity of ICG-11
The heat generating capacity of […] was measured using the following conditions.
as §1
Excitation was carried out at an excitation wavelength of 808 nm and an output of 0.5 W/m^2. The temperature was measured at 1-second intervals.
In FIG. 13, the black, red, blue, and green lines indicate the results when the concentration of ICG-11 was 0 μM, 1 μM, 2 μM, and 4 μM, respectively.

Take “4-(2-((1E,3E,5E,7E)-7-(1,1-dimethyl-3-octadecyl-1H-benzo[e]indol-2(3H)-ylidene)hepta-1,3,5-trienyl)-1,1-dimethyl-1H-benzo[e]indolium-3-yl)butane-1-sulfonic acid [ICG-8]”: the singlet oxygen-producing capacity result in data set [1] was “had a singlet oxygen-producing capacity”. The maximum fluorescence wavelength in data set [2] is recorded as 854 nm.

With `CC1(C)C(/C=C/C=C/C=C/C=C2\N(CCCCS(=O)(=O)O)c3ccc4ccccc4c3C2(C)C)=[N+](CCCCS(=O)(=O)[O-])c2ccc3ccccc3c21` [ICG, indocyanine green, reference compound], the “accumulation in the tumor tissue (fluorescent observation)” value in data set [3] is on record as “did not result in the accumulation of ICG in the tumor tissue”. In addition, the maximum fluorescence wavelength in data set [2] was 852 nm. Besides, the “dye not incorporated into the lipid bilayer membrane” value in data set [4] is “ICG not incorporated into the lipid bilayer membrane increased in the dispersion”. Moreover, the fluorescence emission entry in data set [5] is reported as “not emitting fluorescence”.

In the case of `CCCCCCCC/C=C\CCCCCCCC(=O)OC[C@H](COP(=O)(O)OCCNC(=O)CCN1/C(=C/C=C/C=C/C=C/C2=[N+](CCCCS(=O)(=O)O)c3ccc4ccccc4c3C2(C)C)C(C)(C)c2c1ccc1ccccc21)OC(=O)CCCCCCC/C=C\CCCCCCCC` [ICG-11, 4-(2-((1E,3E,5E,7E)-7-(3-(2-(1,2-dioleoyl-sn-glycero-3-phosphoethanolaminocarbonyl)ethyl)-1,1-dimethyl-1H-benzo[e]indol-2(3H)-ylidene)hepta-1,3,5-trienyl)-1,1-dimethyl-1H-benzo[e]indolium-3-yl)butane-1-sulfonic acid], the singlet oxygen-producing capacity result in data set [1] is “had a singlet oxygen-producing capacity”. For the same molecule, the fluorescence emission result in data set [5] is recorded as “sufficiently strong fluorescence”. For the same molecule, the “fluorescence compared to ICG” value in data set [5] (in methanol as polar solvent) is recorded as 1.5 fold. The heat generating capacity entry in data set [6] is “had a heat-generating capacity (increasing the tissue temperature from 37 °C to 43° C.)”.

The values above are taken from US9872833B2, “Liposome composite body” (National University Corporation Tottori University, priority 2011, dated 2018).
